According to US9663513B2, “Pyrimidine PDE10 inhibitors” (Merck Sharp & Dohme Corp., priority 2012, dated 2017):

These compounds were tested against human PDE10A2 (Homo sapiens (Human), UniProt Q9Y233) (assay: PDE10 fluorescence polarization (IMAP FP) inhibition assay). Details: human PDE10A2 from transfected AD293 cells; FAM-labeled cAMP 50 nM; apparent inhibition constant; read-out: PDE10A Ki.
Type: biochemical
In short: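 Cytoplasmic lysate of AD293 cells transiently expressing human PDE10A2 (enzyme level giving 20% conversion) incubated with 50 nM FAM-cAMP in pH 7.2 Tris/MgCl2 buffer, 30 min at room temperature. IMAP binding solution added, FP read after ≥1 h; 10-point 3-fold compound titrations fitted to a four-parameter equation.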

human PDE10A2, sequence (Q9Y233 267-1055): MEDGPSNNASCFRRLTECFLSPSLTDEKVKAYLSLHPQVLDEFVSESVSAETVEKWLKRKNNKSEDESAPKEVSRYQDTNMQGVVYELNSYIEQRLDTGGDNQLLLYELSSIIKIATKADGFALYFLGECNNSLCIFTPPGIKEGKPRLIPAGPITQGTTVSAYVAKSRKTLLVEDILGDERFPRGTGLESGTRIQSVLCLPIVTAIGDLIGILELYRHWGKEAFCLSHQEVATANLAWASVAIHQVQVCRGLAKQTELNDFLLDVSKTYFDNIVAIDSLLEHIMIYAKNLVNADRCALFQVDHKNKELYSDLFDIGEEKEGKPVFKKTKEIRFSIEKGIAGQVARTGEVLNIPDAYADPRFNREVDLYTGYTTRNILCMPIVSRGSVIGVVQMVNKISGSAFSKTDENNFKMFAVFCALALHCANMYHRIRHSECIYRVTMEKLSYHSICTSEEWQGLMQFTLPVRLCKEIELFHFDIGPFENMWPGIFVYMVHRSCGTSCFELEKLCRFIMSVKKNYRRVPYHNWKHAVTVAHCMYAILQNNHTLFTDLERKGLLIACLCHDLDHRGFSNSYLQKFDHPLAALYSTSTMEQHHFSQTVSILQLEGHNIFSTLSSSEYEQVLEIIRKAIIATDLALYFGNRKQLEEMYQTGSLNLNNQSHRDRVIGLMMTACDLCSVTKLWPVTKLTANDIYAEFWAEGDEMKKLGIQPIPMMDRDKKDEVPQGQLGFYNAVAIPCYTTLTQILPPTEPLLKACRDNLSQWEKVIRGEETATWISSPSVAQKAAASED

| SMILES | Ki |
| --- | --- |
| COc1ccc([C@H]2C[C@@H]2COc2nc(C)ncc2-c2ccc(Br)cc2)nc1 [Example 81, 5-(4-bromophenyl)-4-(((1S,2S)-2-(5-methoxypyridin-2-yl)cyclopropyl)methoxy)-2-methylpyrimidine] | 4.97 nM |
| Cc1ccc([C@H]2C[C@@H]2COc2nc(C)ncc2C2=CC(=O)OC2)nc1 [Example 60, 4-(2-methyl-4-(((1S,2S)-2-(5-methylpyridin-2-yl)cyclopropyl)methoxy)pyrimidin-5-yl)furan-2(5H)-one] | 13.9 nM |
| CCc1ccccc1-c1cnc(C)nc1OC[C@H]1C[C@@H]1c1ccc(C)cn1 [Example 8] | 3.24 nM |
| Cc1ncc(-c2ccc(C(F)(F)F)nc2)c(OC[C@H]2C[C@@H]2c2ccccn2)n1 [Example 117, 2-methyl-4-(((1S,2S)-2-(pyridin-2-yl)cyclopropyl)methoxy)-5-(6-(trifluoromethyl)pyridin-3-yl)pyrimidine] | 23.5 nM |
| Cc1ncc(-c2ccc(C(C)(C)O)nc2)c(OC[C@H]2C[C@@H]2c2ncccc2C)n1 (single isomer, unassigned) [Example 173] | 0.51 nM |
| COc1ccc([C@H]2C[C@@H]2COc2nc(C)ncc2-c2cn(C)nc2C(F)(F)F)nc1 [Example 82, 4-(((1S,2S)-2-(5-methoxypyridin-2-yl)cyclopropyl)methoxy)-2-methyl-5-(1-methyl-3-(trifluoromethyl)-1H-pyrazol-4-yl)pyrimidine] | 0.2 nM |
| Cc1ccc([C@H]2C[C@@H]2COc2nc(C)ncc2-c2cccn3ccnc23)nc1 [Example 135, 8-(2-methyl-4-(((1S,2S)-2-(5-methylpyridin-2-yl)cyclopropyl)methoxy)pyrimidin-5-yl)imidazo[1,2-a]pyridine] | 37.3 nM |
| Cc1ccc([C@H]2C[C@@H]2COc2nc(C)ncc2-c2cn(C)nc2C(O)C(F)F)nc1 (stereo partly drawn) [Example 170, 2,2-difluoro-1-(1-methyl-4-(2-methyl-4-(((1S,2S)-2-(5-methylpyridin-2-yl)cyclopropyl)methoxy)pyrimidin-5-yl)-1H-pyrazol-3-yl)ethanol] | 1.48 nM |
| Cc1ncc(-c2ccc3ncc(C)n3c2)c(OC[C@H]2C[C@@H]2c2ccc3ccccc3n2)n1 [Example 129, 2-((1S,2S)-2-((2-methyl-5-(3-methylimidazo[1,2-a]pyridin-6-yl)pyrimidin-4-yloxy)methyl)cyclopropyl)quinoline] | 0.02 nM |
| COc1ccc([C@H]2C[C@@H]2COc2nc(C)ncc2-c2cnsc2)nc1 [Example 73, 4-(4-(((1S,2S)-2-(5-methoxypyridin-2-yl)cyclopropyl)methoxy)-2-methylpyrimidin-5-yl)isothiazole] | 1.13 nM |
| Cc1ccc([C@H]2C[C@@H]2COc2nc(C)ncc2C2=CCOCC2)nc1 [Example 51, 5-(3,6-dihydro-2H-pyran-4-yl)-2-methyl-4-(((1S,2S)-2-(5-methylpyridin-2-yl)cyclopropyl)methoxy)pyrimidine] | 1.96 nM |
| CCOC(=O)[C@H]1CC[C@@H](c2cnc(C)nc2OC[C@H]2C[C@@H]2c2ccc(OC)cn2)CC1 [Example 216, cis-Ethyl4-(4-(((1S,2S)-2-(5-methoxypyridin-2-yl)cyclopropyl)methoxy)-2-methylpyrimidin-5-yl)cyclohexanecarboxylate] | 7.9 nM |
| COc1ccc([C@H]2C[C@@H]2COc2nc(C)ncc2-c2ccc(-c3ncno3)cc2)nc1 [Example 93, 5-(4-(4-(((1S,2S)-2-(5-methoxypyridin-2-yl)cyclopropyl)methoxy)-2-methylpyrimidin-5-yl)phenyl)-1,2,4-oxadiazole] | 0.15 nM |
| Cc1ncc(-c2ccc(C(C)O)cc2)c(OC[C@H]2C[C@@H]2c2ccccn2)n1 (stereo partly drawn) [Example 121, 1-(4-(2-methyl-4-(((1S,2S)-2-(pyridin-2-yl)cyclopropyl)methoxy)pyrimidin-5-yl)phenyl)ethanol] | 5.05 nM |
| Cc1ccc([C@H]2C[C@@H]2COc2nc(C)ncc2-c2ccc(=O)oc2)nc1 [Example 50, 5-(2-methyl-4-(((1S,2S)-2-(5-methylpyridin-2-yl)cyclopropyl)methoxy)pyrimidin-5-yl)-2H-pyran-2-one] | 4.28 nM |
| Cc1ccnc([C@H]2C[C@@H]2COc2nc(C)ncc2-c2ccc(C(C)(C)O)nc2)c1 (single isomer, unassigned) [Example 177] | 0.38 nM |
| Cc1ncc(-c2cnc(C(C)(C)O)cc2C)c(OC[C@H]2C[C@@H]2c2ccccn2)n1 [Example 118, 2-(4-methyl-5-(2-methyl-4-(((1S,2S)-2-(pyridin-2-yl)cyclopropyl)methoxy)pyrimidin-5-yl)pyridin-2-yl)propan-2-ol] | 0.1 nM |
| COc1ccc([C@H]2C[C@@H]2COc2nc(C)ncc2-c2cnc(C(C)(C)O)cn2)nc1 [Example 66, 2-(5-(4-(((1S,2S)-2-(5-methoxypyridin-2-yl)cyclopropyl)methoxy)-2-methylpyrimidin-5-yl)pyrazin-2-yl)propan-2-ol] | 3.14 nM |
| COc1ccc([C@H]2C[C@@H]2COc2nc(C)ncc2-c2c[nH]nn2)nc1 [Example 245, 4-(((1S,2S)-2-(5-methoxypyridin-2-yl)cyclopropyl)methoxy)-2-methyl-5-(1H-1,2,3-triazol-4-yl)pyrimidine] | 1.36 nM |
| CCn1nnnc1-c1ccc(-c2cnc(C)nc2OC[C@H]2C[C@@H]2c2ccc(OC)cn2)cc1 [Example 226, 5-(4-(1-ethyl-1H-tetrazol-5-yl)phenyl)-4-(((1S,2S)-2-(5-methoxypyridin-2-yl)cyclopropyl)methoxy)-2-methylpyrimidine] | 0.77 nM |
| Cc1ccc([C@H]2C[C@@H]2COc2nc(C)ncc2-c2cc(C)ccc2C)nc1 [Example 13, 5-(2,5-dimethylphenyl)-2-methyl-4-(((1S,2S)-2-(5-methylpyridin-2-yl)cyclopropyl)methoxy)pyrimidine] | 0.7 nM |
| Cc1ncc(-c2ccc(C(C)(C)O)nc2)c(OC[C@H]2C[C@@H]2c2ccc3ccccc3n2)n1 [Example 157, 2-(5-(2-methyl-4-(((1S,2S)-2-(quinolin-2-yl)cyclopropyl)methoxy)pyrimidin-5-yl)pyridin-2-yl)propan-2-ol] | 0.02 nM |

The remaining lines, values ahead:

| Ki | SMILES |
| --- | --- |
| 19.4 nM | CC[C@]1(O)CC[C@@H](c2cnc(C)nc2OC[C@H]2C[C@@H]2c2ccc(C)cn2)CC1 [Example 214, (cis)1-Ethyl-4-(2-methyl-4-(((1S,2S)-2-(5-methylpyridin-2-yl)cyclopropyl)methoxy)pyrimidin-5-yl)cyclohexanol] |
| 0.47 nM | COc1cnccc1-c1cnc(C)nc1OC[C@H]1C[C@@H]1c1ccc(C)cn1 [Example 150, 5-(3-methoxypyridin-4-yl)-2-methyl-4-(((1S,2S)-2-(5-methylpyridin-2-yl)cyclopropyl)methoxy)pyrimidine] |
| 0.23 nM | Cc1ccc([C@H]2C[C@@H]2COc2nc(C)ncc2-c2ccc(C(C)(C)O)nc2C)nc1 [Example 138, 2-(6-Methyl-5-(2-methyl-4-(((1S,2S)-2-(5-methylpyridin-2-yl)cyclopropyl)methoxy)pyrimidin-5-yl)pyridin-2-yl)propan-2-ol] |
| 1.78 nM | COc1ccc([C@H]2C[C@@H]2COc2nc(C)ncc2-c2ccc(-c3nnnn3C)nc2)nc1 [Example 231, 4-(((1S,2S)-2-(5-methoxypyridin-2-yl)cyclopropyl)methoxy)-2-methyl-5-(6-(1-methyl-1H-tetrazol-5-yl)pyridin-3-yl)pyrimidine] |
| 2.28 nM | Cc1cccc([C@H]2C[C@@H]2COc2nc(C)ncc2-c2cn(C)nc2C(C)O)n1 (stereo partly drawn) [Example 161, 1-(1-methyl-4-(2-methyl-4-(((1S,2S)-2-(6-methylpyridin-2-yl)cyclopropyl)methoxy)pyrimidin-5-yl)-1H-pyrazol-3-yl)ethanol] |
| 1.17 nM | COc1ccc([C@H]2C[C@@H]2COc2nc(C)ncc2-c2ccc(-c3nc(CCl)no3)cc2)nc1 [Example 94, 3-(chloromethyl)-5-(4-(4-(((1S,2S)-2-(5-methoxypyridin-2-yl)cyclopropyl)methoxy)-2-methylpyrimidin-5-yl)phenyl)-1,2,4-oxadiazole] |
| 1.78 nM | Cc1ncc(-c2cnc3[nH]ncc3c2)c(OC[C@H]2C[C@@H]2c2ccc3ccccc3n2)n1 (single isomer, unassigned) [Example 152] |
| 0.74 nM | COc1ncccc1-c1cnc(C)nc1OC[C@H]1C[C@@H]1c1ccc(C)cn1 [Example 16, 5-(2-methoxypyridin-3-yl)-2-methyl-4-(((1S,2S)-2-(5-methylpyridin-2-yl)cyclopropyl)methoxy)pyrimidine] |
| 4.79 nM | Cc1ncc([C@H]2CC[C@H](O)CC2)c(OC[C@H]2C[C@@H]2c2ccccn2)n1 [Example 199, Trans-4-(2-methyl-4-(((1S,2S)-2-(pyridin-2-yl)cyclopropyl)methoxy)pyrimidin-5-yl)cyclohexanol] |
| 0.01 nM | Cc1ncc(-c2ccc(C(C)O)cc2)c(OC[C@H]2C[C@@H]2c2ccc3ccccc3n2)n1 (single isomer, unassigned) [Example 34] |
| 1.16 nM | COc1ccc([C@H]2C[C@@H]2COc2nc(C)ncc2-c2ccc(-c3ncon3)cc2)nc1 [Example 250, 3-(4-(4-(((1S,2S)-2-(5-methoxypyridin-2-yl)cyclopropyl)methoxy)-2-methylpyrimidin-5-yl)phenyl)-1,2,4-oxadiazole] |
| 4.01 nM | COc1ccc([C@H]2C[C@@H]2COc2nc(C)ncc2-c2ccc(C(C)(C)O)nn2)nc1 [Example 100, 2-(6-(4-(((1S,2S)-2-(5-methoxypyridin-2-yl)cyclopropyl)methoxy)-2-methylpyrimidin-5-yl)pyridazin-3-yl)propan-2-ol] |
| 1.63 nM | Cc1ccc([C@H]2C[C@@H]2COc2nc(C)ncc2-c2ccc(C(O)C(C)C)nc2)nc1 (stereo partly drawn) [Example 140, 2-methyl-1-(5-(2-methyl-4-(((1S,2S)-2-(5-methylpyridin-2-yl)cyclopropyl)methoxy)pyrimidin-5-yl)pyridin-2-yl)propan-1-ol] |
| 35.6 nM | Cc1ccnc([C@H]2C[C@@H]2COc2nc(C)ncc2-c2ccc(C(C)(C)O)nc2)c1 (single isomer, unassigned) [Example 178] |
